In PubChem BioAssay AID248 (DTP/NCI, 2004):
Several values for one entry are separate records, joined by “and”; a condition that tells them apart may be missing. Identical values can stand only once. Toxic doses and inconclusive results are not listed. No stated cut-off is given here; in the data, active means T/C of 150% or more; inactive means T/C below 125%.

Test system: L1210 leukemia ip in BDF1 mice, survival T/C
Assay: NCI In Vivo Anticancer Drug Screen. Data for tumor model L1210 Leukemia (intraperitoneal) in B6D2F1 (BDF1) mice
Conditions: endpoint: mean survival time, higher = longer survival
Procedure, shortened: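 Each compound was tested against a transplantable tumor grown in mice. The endpoint was survival, with treated animals benchmarked against vehicle controls as a simple ratio.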

[1] = dose: 100.0 mg/kg/injection, schedule: Q04DX002 (ip), vehicle: Klucel (hydroxypropylcellulose) (HPC)
[2] = dose: 200.0 mg/kg/injection, schedule: Q04DX002 (ip), vehicle: Klucel (hydroxypropylcellulose) (HPC)
[3] = dose: 400.0 mg/kg/injection, schedule: Q04DX002 (ip), vehicle: Klucel (hydroxypropylcellulose) (HPC)
[4] = dose: 50.0 mg/kg/injection, schedule: Q01DX009 (ip), vehicle: saline with Tween-80
[5] = dose: 100.0 mg/kg/injection, schedule: Q04DX003 (ip), vehicle: Klucel (hydroxypropylcellulose) (HPC)
[6] = dose: 200.0 mg/kg/injection, schedule: Q01DX009 (ip), vehicle: saline with Tween-80
[7] = dose: 200.0 mg/kg/injection, schedule: Q04DX003 (ip), vehicle: Klucel (hydroxypropylcellulose) (HPC)
[8] = dose: 100.0 mg/kg/injection, schedule: Q01DX001 (ip), vehicle: saline
[9] = dose: 100.0 mg/kg/injection, schedule: Q04DX003 (ip), vehicle: saline with Tween-80
[10] = dose: 200.0 mg/kg/injection, schedule: Q01DX001 (ip), vehicle: saline
[11] = dose: 200.0 mg/kg/injection, schedule: Q04DX003 (ip), vehicle: saline with Tween-80
[12] = dose: 400.0 mg/kg/injection, schedule: Q01DX001 (ip), vehicle: saline
[13] = dose: 400.0 mg/kg/injection, schedule: Q04DX003 (ip), vehicle: saline with Tween-80
[14] = dose: 100.0 mg/kg/injection, schedule: Q04DX003 (ip), vehicle: saline
[15] = dose: 200.0 mg/kg/injection, schedule: Q04DX003 (ip), vehicle: saline
[16] = dose: 400.0 mg/kg/injection, schedule: Q04DX003 (ip), vehicle: saline
[17] = dose: 100.0 mg/kg/injection, schedule: Q01DX009 (ip), vehicle: saline
[18] = dose: 200.0 mg/kg/injection, schedule: Q01DX009 (ip), vehicle: saline
[19] = dose: 100.0 mg/kg/injection, schedule: Q01DX001 (ip), vehicle: carboxymethylcellulose (CMC)
[20] = dose: 200.0 mg/kg/injection, schedule: Q01DX001 (ip), vehicle: carboxymethylcellulose (CMC)
[21] = dose: 100.0 mg/kg/injection, schedule: Q01DX009 (ip), vehicle: saline with Tween-80
[22] = dose: 400.0 mg/kg/injection, schedule: Q01DX009 (ip), vehicle: saline with Tween-80

Measured: T/C

O=C(Oc1ccc2ccc(=O)oc2c1)N(CCCl)CCCl
inactive: dose: 50.0 mg/kg/injection, schedule: Q01DX009 (ip), vehicle: Klucel (hydroxypropylcellulose) (HPC) 97 % of control | dose: 100.0 mg/kg/injection, schedule: Q01DX009 (ip), vehicle: Klucel (hydroxypropylcellulose) (HPC) 90 % of control | dose: 200.0 mg/kg/injection, schedule: Q01DX009 (ip), vehicle: Klucel (hydroxypropylcellulose) (HPC) 101 % of control

CC(NC(=O)NC(C)(C)C)c1ccccc1 (stereo not given)
inactive: [1] 102 % of control | [2] 105 % of control | [3] 121 % of control

Nc1nc2nc(C(=O)O)cnc2c(=O)[nH]1
inactive: dose: 12.5 mg/kg/injection, schedule: Q04DX003 (ip), vehicle: saline 95 % of control | dose: 25.0 mg/kg/injection, schedule: Q04DX003 (ip), vehicle: saline 102 % of control

CCOC(=O)CC1NCCC2C1CCC(OC)C2OC (stereo not given)
inactive: [4] 106 % of control | [5] 98 % of control | [6] 95 % of control | [7] 104 % of control

COc1ccccc1CC(=O)O
inactive: [8] 100 % of control | [9] 101 % of control | [10] 103 % of control | [11] 105 % of control | [12] 108 % of control | [13] 101 % of control

CC(C)(C)OOC(=O)c1ccccc1O
inactive: dose: 100.0 mg/kg/injection, schedule: Q01DX009 (ip), vehicle: saline sonified 113 % of control | [14] 106 % of control | [15] 106 % of control | [16] 110 % of control

CCCCNC(=O)N(C)Cc1ccccc1
inactive: [1] 105 % of control | [2] 97 % of control | [3] 112 % of control

Cc1ccccc1CCC(=O)OCC(=O)c1ccc(-c2ccccc2)cc1
inactive: [8] 96 % of control | [10] 88 % of control | [12] 92 % of control

CCOc1cc(-c2ccc(OC)cc2)nc(N)n1
inactive: dose: 100.0 mg/kg/injection, schedule: Q04DX002 (ip), vehicle: saline with Tween-80 91 % of control | dose: 200.0 mg/kg/injection, schedule: Q04DX002 (ip), vehicle: saline with Tween-80 97 % of control | dose: 400.0 mg/kg/injection, schedule: Q04DX002 (ip), vehicle: saline with Tween-80 91 % of control

O=C1OC(=O)C2CC=CCC12 (stereo not given)
inactive: [9] 106 % of control | [11] 106 % of control | [13] 98 % of control

Cc1cccc(OCCOC(=O)Nc2cccc(C(F)(F)F)c2)c1
inactive: [8] 104 % of control | [17] 100 % of control and 87 % of control | dose: 100.0 mg/kg/injection, schedule: Q04DX002 (ip), vehicle: saline 100 % of control and 101 % of control | [14] 101 % of control | [10] 106 % of control | [18] 92 % of control and 87 % of control | dose: 200.0 mg/kg/injection, schedule: Q04DX002 (ip), vehicle: saline 100 % of control and 105 % of control | [15] 106 % of control | [12] 109 % of control | dose: 400.0 mg/kg/injection, schedule: Q01DX009 (ip), vehicle: saline 94 % of control | dose: 400.0 mg/kg/injection, schedule: Q04DX002 (ip), vehicle: saline 92 % of control and 97 % of control | [16] 103 % of control

Nc1nc(Cl)c(C=O)c(Cl)n1
inactive: dose: 25.0 mg/kg/injection, schedule: Q01DX001 (ip), vehicle: carboxymethylcellulose (CMC) 97 % of control | dose: 50.0 mg/kg/injection, schedule: Q01DX001 (ip), vehicle: carboxymethylcellulose (CMC) 97 % of control | [19] 94 % of control | [20] 103 % of control

CCOC(=O)C(CC)c1nc2ccccc2o1 (stereo not given)
inactive: [4] 109 % of control | [21] 100 % of control | [6] 95 % of control | [22] 94 % of control

COC(=O)CCNc1ccccc1
inactive: [21] 108 % of control | [6] 100 % of control | [22] 102 % of control

Nc1cccc(C(=O)CC(=O)Nc2nccs2)c1
inactive: dose: 50.0 mg/kg/injection, schedule: Q04DX003 (ip), vehicle: Klucel (hydroxypropylcellulose) (HPC) 90 % of control | dose: 100.0 mg/kg/injection, schedule: Q01DX001 (ip), vehicle: Klucel (hydroxypropylcellulose) (HPC) 98 % of control | [5] 95 % of control | dose: 200.0 mg/kg/injection, schedule: Q01DX001 (ip), vehicle: Klucel (hydroxypropylcellulose) (HPC) 103 % of control | [7] 90 % of control | dose: 400.0 mg/kg/injection, schedule: Q01DX001 (ip), vehicle: Klucel (hydroxypropylcellulose) (HPC) 98 % of control

Cc1ccc(C(=O)C2C3C=CC(C3)C2C(=O)c2ccc(C)cc2)cc1 (stereo not given)
inactive: dose: 75.0 mg/kg/injection, schedule: Q01DX009 (ip), vehicle: Klucel (hydroxypropylcellulose) (HPC) 95 % of control | dose: 150.0 mg/kg/injection, schedule: Q01DX009 (ip), vehicle: Klucel (hydroxypropylcellulose) (HPC) 90 % of control | dose: 300.0 mg/kg/injection, schedule: Q01DX009 (ip), vehicle: Klucel (hydroxypropylcellulose) (HPC) 95 % of control

CCn1c(O)c(C=N)c(=O)[nH]c1=O
inactive: [17] 96 % of control | [14] 88 % of control | [18] 93 % of control | [15] 95 % of control | [16] 90 % of control

OCCN1CCN(CCCN2c3ccccc3Sc3ccc(Cl)cc32)CC1
inactive: dose: 6.25 mg/kg/injection, schedule: Q01DX001 (ip), vehicle: Klucel (hydroxypropylcellulose) (HPC) 97 % of control | dose: 12.5 mg/kg/injection, schedule: Q01DX001 (ip), vehicle: Klucel (hydroxypropylcellulose) (HPC) 105 % of control | dose: 25.0 mg/kg/injection, schedule: Q01DX001 (ip), vehicle: Klucel (hydroxypropylcellulose) (HPC) 111 % of control | [2] 108 % of control

C1CC2CC1C1OC21 (stereo not given)
inactive: dose: 50.0 mg/kg/injection, schedule: Q01DX001 (ip), vehicle: saline 103 % of control | [8] 100 % of control | dose: 100.0 mg/kg/injection, schedule: Q01DX009 (ip), vehicle: other 100 % of control | [10] 105 % of control | dose: 200.0 mg/kg/injection, schedule: Q01DX009 (ip), vehicle: other 101 % of control | [12] 103 % of control | dose: 400.0 mg/kg/injection, schedule: Q01DX009 (ip), vehicle: other 94 % of control

O=C1OC(c2ccccc2)C=C1Nc1ccccc1 (stereo not given)
inactive: [9] 95 % of control | [11] 95 % of control | [13] 91 % of control

Cc1cc([N+](=O)[O-])c(Nc2ccc(C)c(Cl)c2)c([N+](=O)[O-])c1
inactive: [1] 93 % of control | [2] 91 % of control | [3] 96 % of control

c1ccc2c(c1)OCOc1ccccc1OCO2
inactive: [19] 94 % of control | [20] 92 % of control | dose: 400.0 mg/kg/injection, schedule: Q01DX001 (ip), vehicle: carboxymethylcellulose (CMC) 92 % of control

Cc1ccc(S(=O)(=O)Oc2cc(C)ccc2C)cc1
inactive: [21] 100 % of control | [5] 97 % of control | [6] 93 % of control | [7] 92 % of control | [22] 101 % of control | dose: 400.0 mg/kg/injection, schedule: Q04DX003 (ip), vehicle: Klucel (hydroxypropylcellulose) (HPC) 91 % of control

COc1ccc(OC)c2ccccc12
inactive: dose: 50.0 mg/kg/injection, schedule: Q01DX005 (ip), vehicle: saline with Tween-80 101 % of control | dose: 100.0 mg/kg/injection, schedule: Q01DX005 (ip), vehicle: saline with Tween-80 101 % of control | dose: 200.0 mg/kg/injection, schedule: Q01DX005 (ip), vehicle: saline with Tween-80 111 % of control | dose: 400.0 mg/kg/injection, schedule: Q01DX005 (ip), vehicle: saline with Tween-80 98 % of control

C=C(S(=O)(=O)c1ccccc1)S(=O)(=O)c1ccccc1 (tested in a mixture with another compound)
inactive: dose: 10.0 mg/kg/injection, schedule: Q04DX002 (ip), vehicle: Klucel (hydroxypropylcellulose) (HPC) 117 % of control | dose: 20.0 mg/kg/injection, schedule: Q04DX002 (ip), vehicle: Klucel (hydroxypropylcellulose) (HPC) 102 % of control | dose: 40.0 mg/kg/injection, schedule: Q04DX002 (ip), vehicle: Klucel (hydroxypropylcellulose) (HPC) 91 % of control | [2] 86 % of control
